One may read the IC50 as the concentration at which inhibition is half-maximal.

This passage reports IC50 results from patent publication US8217051B2, “Spiroindolinone derivatives” (Hoffmann-La Roche Inc., priority 2009, dated 2012).

Sequence of interaction between p53 and MDM2 proteins (Q00987 whole entry): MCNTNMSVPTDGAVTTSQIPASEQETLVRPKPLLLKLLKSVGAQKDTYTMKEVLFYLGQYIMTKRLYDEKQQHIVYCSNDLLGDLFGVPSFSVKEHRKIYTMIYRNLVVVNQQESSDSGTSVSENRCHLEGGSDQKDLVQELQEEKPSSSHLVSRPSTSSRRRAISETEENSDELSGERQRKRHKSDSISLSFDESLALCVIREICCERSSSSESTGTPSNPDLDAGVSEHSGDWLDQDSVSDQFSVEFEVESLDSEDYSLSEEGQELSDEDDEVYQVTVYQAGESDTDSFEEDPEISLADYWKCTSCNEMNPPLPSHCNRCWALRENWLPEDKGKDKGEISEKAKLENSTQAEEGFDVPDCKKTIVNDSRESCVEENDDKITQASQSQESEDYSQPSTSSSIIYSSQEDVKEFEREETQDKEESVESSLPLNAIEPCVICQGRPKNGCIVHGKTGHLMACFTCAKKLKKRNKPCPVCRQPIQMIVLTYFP

In this assay the target is interaction between p53 and MDM2 proteins (Homo sapiens, UniProt Q00987). Kind of assay: HTRF assay of inhibition of p53-MDM2 interaction (GST-MDM2 / biotinylated p53 peptide). It is filed as binding. Conditions: 0.02% BSA. On the procedure:
The ability of the compounds to inhibit the interaction between p53 and MDM2 proteins was measured by an HTRF (homogeneous time-resolved fluorescence) assay in which recombinant GST-tagged MDM2 binds to a peptide that resembles the MDM2-interacting region of p53 (Lane et al.). Binding of GST-MDM2 protein and p53-peptide (biotinylated on its N-terminal end) is registered by the FRET (fluorescence resonance energy transfer) between Europium (Eu)-labeled anti-GST antibody and streptavidin-conjugated Allophycocyanin (APC).
Test is performed in black flat-bottom 384-well plates (Costar) in a total volume of […] containing:90 nM biotinylate peptide, 160 ng/ml GST-MDM2, 20 nM streptavidin-APC (PerkinElmerWallac), 2 nM Eu-labeled anti-GST-antibody (PerkinElmerWallac), 0.2% bovine serum albumin (BSA), 1 mM dithiothreitol (DTT) and 20 mM […] (TBS) buffer as follows: Add 10 uL of GST-MDM2 (640 ng/ml working solution) in reaction buffer to each well. Add 10 uL diluted compounds (1:5 dilution in reaction buffer) to each well, mix by shaking. Add 20 uL biotinylated p53 peptide (180 nM working solution) in reaction buffer to each well and mix on shaker. Incubate at 37° C. for 1 h. Add 20 uL streptavidin-APC and Eu-anti-GST antibody mixture (6 nM Eu-anti-GST and 60 nM streptavidin-APC working solution) in TBS buffer with 0.2% BSA, shake at room temperature for 30 minutes and read using a TRF-capable plate reader at 665 and 615 nm (Victor 5, Perkin ElmerWallac). If not specified, the reagents were purchased from Sigma Chemical Co.
(In TR-FRET formats the signal depends on donor and acceptor labels being close together.)
`O=C1C=C(c2cccc(F)c2)[C@]2(C(=O)Nc3cc(Cl)ccc32)[C@@H](c2cc(Cl)ccc2OC2CCOCC2)N1` (racemic) [Example 16, racemic(2′R,3R)-6-chloro-2′-[5-chloro-2-(tetrahydro-pyran-4-yloxy)-phenyl]-4′-(3-fluoro-phenyl)-1′,3′-dihydrospiro[3H-indole-3,3′-pyridine]-2,6′(1H)-dione]: the IC50 came out at 482 nM.

Turning to `Cc1ccc(F)cc1[C@H]1NC(=O)C=C(c2ccoc2)[C@]12C(=O)Nc1cc(Cl)ccc12` (racemic) [Example 32, racemic(2′R,3R)-6-chloro-2′-(5-fluoro-2-methyl-phenyl)-4′-(furan-3-yl)-1′,3′-dihydrospiro[3H-indole-3,3′(2′H)-pyridine]-2,6′(1H)-dione], the half-inhibitory concentration (IC50) was found to be 5300 nM.

`Cc1ccc(F)cc1[C@H]1NC(=O)C=C(c2cccc(Cl)c2)[C@]12C(=O)Nc1cc(Cl)ccc12` [Example 6, chiral(2′R,3R)-6-chloro-4′-(3-chloro-phenyl)-2′-(5-fluoro-2-methyl-phenyl)-1′,3′-dihydrospiro[3H-indole-3,3′(2′H)-pyridine]-2,6′(1H)-dione] displayed an IC50 of 66 nM.

`O=C1C=C(c2cccc(Cl)c2)[C@]2(C(=O)Nc3cc(Cl)ccc32)[C@@H](c2cc(Cl)ccc2OC2CCOCC2)N1` (racemic) [Example 12, racemic(2′R,3R)-6-chloro-4′-(3-chloro-phenyl)-2′-[5-chloro-2-(tetrahydro-pyran-4-yloxy)-phenyl]-1′,3′-dihydrospiro[3H-indole-3,3′-pyridine]-2,6′(1H)-dione] came in with an IC50 of 273 nM.

Compound `Cc1ccc(F)cc1[C@H]1NC(=O)C=C(c2cccnc2)[C@]12C(=O)Nc1cc(Cl)ccc12` (racemic) [Example 40, racemic(2′R,3R)-6-chloro-2′-(5-fluoro-2-methyl-phenyl)-4′-(pyridin-3-yl)-1′,3′-dihydrospiro[3H-indole-3,3′(2′H)-pyridine]-2,6′(1H)-dione] gave an IC50 of 6420 nM.
